Measured values taken from ChEMBL document CHEMBL1131913 (Bioorg Med Chem Lett, 1999).

What was measured:
[1] = target: T1, Prostaglandin G/H synthase 2 (Homo sapiens, UniProt P35354); experiment: In vitro inhibitory activity against Prostaglandin G/H synthase 2 (COX-2) in human
T1 sequence (P35354 whole entry): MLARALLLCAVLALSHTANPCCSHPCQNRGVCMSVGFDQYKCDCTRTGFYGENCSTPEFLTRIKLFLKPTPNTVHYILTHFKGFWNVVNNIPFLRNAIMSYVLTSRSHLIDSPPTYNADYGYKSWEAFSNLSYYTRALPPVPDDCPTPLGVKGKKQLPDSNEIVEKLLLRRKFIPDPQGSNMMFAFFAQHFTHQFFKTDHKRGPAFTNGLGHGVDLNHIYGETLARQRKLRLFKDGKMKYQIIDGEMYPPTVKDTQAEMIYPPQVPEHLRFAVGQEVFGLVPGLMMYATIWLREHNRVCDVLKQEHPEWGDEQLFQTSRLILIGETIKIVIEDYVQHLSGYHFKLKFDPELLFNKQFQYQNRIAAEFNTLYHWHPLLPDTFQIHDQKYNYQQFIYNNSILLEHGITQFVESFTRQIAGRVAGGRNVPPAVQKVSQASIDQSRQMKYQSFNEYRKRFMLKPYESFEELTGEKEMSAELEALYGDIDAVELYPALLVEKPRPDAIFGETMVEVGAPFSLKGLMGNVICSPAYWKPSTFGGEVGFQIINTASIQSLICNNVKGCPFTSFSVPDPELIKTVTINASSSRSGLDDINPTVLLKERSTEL

[2] = target: T2, Prostaglandin G/H synthase 1 (Ovis aries, UniProt P05979); experiment: In vitro inhibitory activity against Prostaglandin G/H synthase 1 in sheep
T2 sequence (P05979 whole entry): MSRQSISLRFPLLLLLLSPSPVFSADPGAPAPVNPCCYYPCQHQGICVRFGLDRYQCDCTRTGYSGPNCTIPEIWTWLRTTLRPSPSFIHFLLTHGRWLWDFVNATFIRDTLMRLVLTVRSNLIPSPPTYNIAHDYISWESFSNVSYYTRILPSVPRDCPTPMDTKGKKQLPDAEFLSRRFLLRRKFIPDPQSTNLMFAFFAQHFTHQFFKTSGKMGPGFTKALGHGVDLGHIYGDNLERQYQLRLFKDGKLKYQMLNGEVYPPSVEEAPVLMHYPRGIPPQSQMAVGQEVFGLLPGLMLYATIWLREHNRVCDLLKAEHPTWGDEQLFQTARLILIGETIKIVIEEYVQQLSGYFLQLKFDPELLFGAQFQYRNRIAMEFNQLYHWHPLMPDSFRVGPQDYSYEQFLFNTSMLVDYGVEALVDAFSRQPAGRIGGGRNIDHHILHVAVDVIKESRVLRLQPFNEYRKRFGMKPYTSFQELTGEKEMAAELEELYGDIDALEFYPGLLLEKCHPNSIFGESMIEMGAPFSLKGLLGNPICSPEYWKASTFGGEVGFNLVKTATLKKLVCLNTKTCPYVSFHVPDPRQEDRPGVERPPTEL

[3] = organism: Ovis aries; experiment: Selectivity ratio of COX-1 to that of COX-2

SMILES | IC50 [1] [µM] | IC50 [2] [µM] | Selectivity [3]
CCc1cccc(-c2ccc(C(C)C(=O)O)cc2)c1 (stereo not drawn) | 2.4 | 5.8 | 2.4
CC(C(=O)O)c1ccc(-c2ccc3[nH]ccc3c2)cc1 (stereo not drawn) | 0.19 | 0.1 | 0.53
CCOc1cccc(-c2ccc(C(C)C(=O)O)cc2F)c1 (stereo not drawn) | 0.014 | 0.014 | 1
Cc1cc2cc(-c3ccc(C(C)C(=O)O)cc3)ccc2[nH]1 (stereo not drawn) | 0.23 | 10.5 | 45
COc1cc(OC)cc(-c2ccc(C(C)C(=O)O)cc2F)c1 (stereo not drawn) | 0.07 | 0.063 | 0.9
Cc1cc(C)cc(-c2ccc(C(C)C(=O)O)cc2F)c1 (stereo not drawn) | 19 | 15 | 0.79
CCOc1cc(OCC)cc(-c2ccc(C(C)C(=O)O)cc2F)c1 (stereo not drawn) | 0.1 | 7.7 | 77
CCSc1cccc(-c2ccc(C(C)C(=O)O)cc2)c1 (stereo not drawn) | 0.33 | 3.1 | 9.4

Further lines, results first:

IC50 [1] [µM] | IC50 [2] [µM] | Selectivity [3] | SMILES
0.32 | 25 | 78 | CCOc1cc(OCC)cc(-c2ccc(C(C)C(=O)O)cc2)c1 (stereo not drawn)
0.73 | 1.3 | 1.8 | C=Cc1cccc(-c2ccc(C(C)C(=O)O)cc2)c1 (stereo not drawn)
> 100 | 15 | < 0.15 | CC(C)c1cccc(-c2ccc(C(C)C(=O)O)cc2F)c1 (stereo not drawn)
0.021 |  |  | CC(C(=O)O)c1ccc(-c2ccccc2)cc1 (stereo not drawn)
0.19 | 0.19 | 1 | C=Cc1cncc(-c2ccc(C(C)C(=O)O)cc2)c1 (stereo not drawn)
0.15 | 1.4 | 9.3 | C=CCc1cccc(-c2ccc(C(C)C(=O)O)cc2)c1 (stereo not drawn)
0.67 | 15.5 | 23 | C/C=C/c1cncc(-c2ccc(C(C)C(=O)O)cc2)c1 (stereo not drawn)
